ChEMBL document CHEMBL5346860, “Cancer multidrug-resistance reversal by ABCB1 inhibition: A recent update” (Eur J Med Chem, 2022)
In brackets after ≈: the same amount, converted by molar mass.

Key:
[1] = target: T1, ATP-dependent translocase ABCB1 (Homo sapiens, UniProt P08183); test: Inhibition of P-gp1 efflux in human Flp-In-293 cells using calcein-AM as substrate assessed as increase in intracellular accumulation of calcein-AM preincubated for 30 mins followed by substrate addition and measured for 30 mins by fluorescence based assay; assay type: cell-based
T1 sequence (P08183 whole entry): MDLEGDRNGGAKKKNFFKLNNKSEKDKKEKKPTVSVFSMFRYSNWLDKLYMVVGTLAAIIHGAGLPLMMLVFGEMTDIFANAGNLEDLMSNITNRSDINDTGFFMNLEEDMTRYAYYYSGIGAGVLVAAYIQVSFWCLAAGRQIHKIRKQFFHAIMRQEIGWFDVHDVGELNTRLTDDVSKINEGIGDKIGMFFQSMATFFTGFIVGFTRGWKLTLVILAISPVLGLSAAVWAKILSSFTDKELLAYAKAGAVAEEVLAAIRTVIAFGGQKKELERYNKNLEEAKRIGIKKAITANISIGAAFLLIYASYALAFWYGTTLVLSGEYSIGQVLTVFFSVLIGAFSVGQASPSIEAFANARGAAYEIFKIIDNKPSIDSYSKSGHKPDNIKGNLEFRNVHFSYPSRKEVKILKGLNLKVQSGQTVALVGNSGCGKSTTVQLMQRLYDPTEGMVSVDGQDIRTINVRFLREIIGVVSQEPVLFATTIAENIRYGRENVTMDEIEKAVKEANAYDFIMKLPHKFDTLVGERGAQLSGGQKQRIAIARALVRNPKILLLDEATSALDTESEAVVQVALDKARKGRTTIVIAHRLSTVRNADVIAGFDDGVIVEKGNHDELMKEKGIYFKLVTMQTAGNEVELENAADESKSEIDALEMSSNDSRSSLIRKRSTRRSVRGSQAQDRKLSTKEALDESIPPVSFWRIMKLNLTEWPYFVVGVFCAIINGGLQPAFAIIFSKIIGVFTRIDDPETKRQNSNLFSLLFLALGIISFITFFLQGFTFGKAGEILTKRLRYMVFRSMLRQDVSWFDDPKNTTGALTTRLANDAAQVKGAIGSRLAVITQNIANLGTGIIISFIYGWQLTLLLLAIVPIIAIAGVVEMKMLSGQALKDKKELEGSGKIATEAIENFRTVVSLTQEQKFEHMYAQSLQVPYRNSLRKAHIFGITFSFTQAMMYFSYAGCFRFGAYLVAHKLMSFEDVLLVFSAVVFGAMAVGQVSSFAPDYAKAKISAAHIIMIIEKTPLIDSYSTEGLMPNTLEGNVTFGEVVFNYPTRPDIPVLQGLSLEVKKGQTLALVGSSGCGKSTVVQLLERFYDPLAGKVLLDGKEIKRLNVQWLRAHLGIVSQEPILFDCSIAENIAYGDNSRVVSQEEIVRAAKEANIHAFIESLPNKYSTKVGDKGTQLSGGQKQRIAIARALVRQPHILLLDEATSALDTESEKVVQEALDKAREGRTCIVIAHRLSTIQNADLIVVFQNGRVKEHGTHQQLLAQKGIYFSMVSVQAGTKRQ

[2] = target: T1, ATP-dependent translocase ABCB1; test: Inhibition of P-gp1 efflux in human Flp-In-293 cells using rhodamine as substrate assessed as increase in intracellular accumulation of rhodamine 123 preincubated for 30 mins followed by substrate addition and measured for 10 mins by fluorescence based assay; assay type: cell-based
[3] = target: T1, ATP-dependent translocase ABCB1; test: Inhibition of ABCB1 efflux pump in human LS180 cells using Rh123 as substrate incubated for 90 mins by fluorescence based assay; assay type: cell-based
[4] = Antiproliferative activity against daunorubicin-resistant human EPG85-257 cells incubated for 72 hrs by annexin-V-PI staining based flow cytometry; assay type: functional, EPG85-257RDB
[5] = cells; conditions: Homo sapiens, EPP85-181RDB, 72 h
Description: Antiproliferative activity against daunorubicin-resistant human EPP85-181 cells incubated for 72 hrs by annexin-V-PI staining based flow cytometry

[6] = test system: L5178Y; test: Cytotoxicity against multidrug-resistant mouse L5178Y cells expressing ABCB1 assessed as cell growth inhibition incubated for 24 hrs by MTT assay; assay type: functional, cell-based
[7] = test system: L5178Y; test: Cytotoxicity against multi-drug resistant mouse L5178Y cells expressing ABCB1 assessed as cell growth inhibition incubated for 24 hrs by MTT assay; assay type: functional, cell-based
[8] = target: Multidrug resistance-associated protein 1 (Homo sapiens, UniProt P33527); test: Inhibition of MRP1 efflux pump in human MCF7 cells assessed as fold increase in vinblastine cellular accumulation; assay type: cell-based
Chain of Multidrug resistance-associated protein 1 (P33527 whole entry): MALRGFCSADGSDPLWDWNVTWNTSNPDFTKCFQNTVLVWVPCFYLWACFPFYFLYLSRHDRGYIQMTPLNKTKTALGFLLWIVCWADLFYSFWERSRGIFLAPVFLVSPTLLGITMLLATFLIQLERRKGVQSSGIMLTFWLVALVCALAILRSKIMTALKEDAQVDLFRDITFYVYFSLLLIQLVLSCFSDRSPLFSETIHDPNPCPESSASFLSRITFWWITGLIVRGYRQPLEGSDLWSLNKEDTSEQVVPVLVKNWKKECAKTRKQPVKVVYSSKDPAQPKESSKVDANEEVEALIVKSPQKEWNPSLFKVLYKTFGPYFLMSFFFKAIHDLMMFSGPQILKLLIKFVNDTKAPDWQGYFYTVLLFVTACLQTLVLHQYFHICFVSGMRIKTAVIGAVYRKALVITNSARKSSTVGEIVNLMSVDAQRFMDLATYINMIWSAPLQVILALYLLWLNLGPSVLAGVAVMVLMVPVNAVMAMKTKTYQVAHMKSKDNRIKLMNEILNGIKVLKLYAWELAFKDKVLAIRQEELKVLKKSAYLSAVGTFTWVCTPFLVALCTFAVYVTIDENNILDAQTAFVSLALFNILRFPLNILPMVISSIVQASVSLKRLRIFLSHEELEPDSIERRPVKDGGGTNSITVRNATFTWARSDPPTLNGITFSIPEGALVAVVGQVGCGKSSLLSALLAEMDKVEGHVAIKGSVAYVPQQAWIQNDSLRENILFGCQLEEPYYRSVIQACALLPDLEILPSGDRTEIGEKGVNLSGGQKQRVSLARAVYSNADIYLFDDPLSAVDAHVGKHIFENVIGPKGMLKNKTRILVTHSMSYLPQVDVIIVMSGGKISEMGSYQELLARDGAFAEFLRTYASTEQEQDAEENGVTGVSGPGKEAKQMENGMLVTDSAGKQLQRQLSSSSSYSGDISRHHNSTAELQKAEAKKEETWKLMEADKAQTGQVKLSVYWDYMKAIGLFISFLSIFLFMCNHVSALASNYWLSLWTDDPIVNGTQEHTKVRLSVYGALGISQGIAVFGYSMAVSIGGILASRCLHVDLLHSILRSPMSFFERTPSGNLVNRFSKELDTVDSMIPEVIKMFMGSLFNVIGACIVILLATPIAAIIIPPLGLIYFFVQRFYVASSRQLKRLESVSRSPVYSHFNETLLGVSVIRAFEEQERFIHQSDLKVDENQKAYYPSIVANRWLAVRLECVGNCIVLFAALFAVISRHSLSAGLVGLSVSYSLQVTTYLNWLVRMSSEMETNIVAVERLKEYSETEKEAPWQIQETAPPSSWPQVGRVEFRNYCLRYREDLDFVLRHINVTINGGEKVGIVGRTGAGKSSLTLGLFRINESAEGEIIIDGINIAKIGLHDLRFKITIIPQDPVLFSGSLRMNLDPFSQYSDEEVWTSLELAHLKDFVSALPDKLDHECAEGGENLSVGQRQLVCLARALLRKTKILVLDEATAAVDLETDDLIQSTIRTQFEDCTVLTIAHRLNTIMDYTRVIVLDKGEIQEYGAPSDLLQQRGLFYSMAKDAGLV

[9] = target: T2, Broad substrate specificity ATP-binding cassette transporter ABCG2 (Homo sapiens, UniProt Q9UNQ0); test: Inhibition of BCRP efflux pump in human MCF7 cells assessed as fold increase in vinblastine cellular accumulation; assay type: cell-based
T2 sequence (Q9UNQ0 whole entry): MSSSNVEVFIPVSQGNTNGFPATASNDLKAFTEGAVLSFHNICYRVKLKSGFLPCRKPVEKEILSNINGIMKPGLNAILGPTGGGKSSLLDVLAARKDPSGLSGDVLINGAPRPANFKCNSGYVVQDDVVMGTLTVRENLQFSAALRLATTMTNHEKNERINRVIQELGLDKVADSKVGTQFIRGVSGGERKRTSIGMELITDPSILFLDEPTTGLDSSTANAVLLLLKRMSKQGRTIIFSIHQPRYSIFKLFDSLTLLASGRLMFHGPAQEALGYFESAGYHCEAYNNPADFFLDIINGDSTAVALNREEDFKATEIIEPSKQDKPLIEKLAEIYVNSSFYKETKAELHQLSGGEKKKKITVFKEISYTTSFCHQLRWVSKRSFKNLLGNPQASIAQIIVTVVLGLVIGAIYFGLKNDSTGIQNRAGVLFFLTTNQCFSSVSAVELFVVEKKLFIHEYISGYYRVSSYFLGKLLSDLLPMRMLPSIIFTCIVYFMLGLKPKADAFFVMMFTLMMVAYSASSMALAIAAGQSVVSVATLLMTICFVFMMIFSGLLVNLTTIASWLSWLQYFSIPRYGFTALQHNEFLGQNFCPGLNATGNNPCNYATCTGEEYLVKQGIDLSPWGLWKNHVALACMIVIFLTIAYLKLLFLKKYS

[10] = target: T1, ATP-dependent translocase ABCB1; test: Inhibition of P-gp efflux pump in human MCF7 cells assessed as fold increase in vinblastine cellular accumulation; assay type: cell-based
[11] = test system: KB-V1; test: cells; conditions: Homo sapiens, KB-V1, 72 h
Description: Cytotoxicity against human KB-V1 cells assessed as cell growth inhibition incubated for 72 hrs by MTS assay

[12] = test system: KB 3-1; test: cells; conditions: Homo sapiens, KB 3-1, 72 h
Description: Cytotoxicity against human KB 3-1 cells assessed as cell growth inhibition incubated for 72 hrs by MTS assay

[13] = Reversal of […] in human Flp-In-293 cells expressing ABCB1 assessed as fold change in doxorubicin IC50 in presence of caffeic acid for 30 mins by fluorescence based assay; assay type: functional; conditions: 0.5 h
[14] = Reversal of vincristine resistance in human Flp-In-293 cells expressing ABCB1 assessed as fold change in vincristine IC50 in presence of caffeic acid for 30 mins by fluorescence based assay; assay type: functional; conditions: 0.5 h
[15] = Reversal of paclitaxel resistance in human Flp-In-293 cells expressing ABCB1 assessed as cell growth inhibition in presence of caffeic acid for 30 mins by fluorescence based assay; assay type: functional; conditions: Flp-In-293, 0.5 h
[16] = Reversal of vincristine resistance in human Flp-In-293 cells expressing ABCB1 assessed as cell growth inhibition in presence of caffeic acid for 30 mins by fluorescence based assay; assay type: functional; conditions: Flp-In-293, 0.5 h
[17] = Reversal of paclitaxel resistance in human Flp-In-293 cells expressing ABCB1 assessed as fold change in paclitaxel IC50 in presence of caffeic acid for 30 mins by fluorescence based assay; assay type: functional; conditions: 0.5 h
[18] = Reversal of doxorubicin resistance in human Flp-In-293 cells expressing ABCB1 assessed as cell growth inhibition in presence of caffeic acid for 30 mins by fluorescence based assay; assay type: functional; conditions: Flp-In-293, 0.5 h
[19] = cells; conditions: Homo sapiens, KBVIN, 72 h
Description: Antiproliferative activity against multidrug-resistant human KB-VIN cells assessed as cell growth inhibition incubated for 72 hrs by SRB assay

[20] = Antiproliferative activity against human Flp-In-293 cells expressing ABCB1 assessed as cell growth inhibition incubated for 72 hrs by SRB assay; assay type: toxicity, cell-based
[21] = test system: HeLa S3; test: cells; conditions: Homo sapiens, HeLa S3, 72 h
Description: Antiproliferative activity against drug-sensitive human HeLaS3 cells assessed as cell growth inhibition incubated for 72 hrs by SRB assay

[22] = target: T1, ATP-dependent translocase ABCB1; test: Inhibition of ABCB1 in human HEK293 cells; assay type: cell-based
[23] = target: T1, ATP-dependent translocase ABCB1; test: Inhibition of ABCB1 in human HEK293 cells in the presence of doxorubicin; assay type: cell-based
[24] = Reversal of drug resistance in paclitaxel-resistant human TOV-21G cells assessed as fold change in paclitaxel IC50 in presence of paclitaxel; assay type: functional, paclitaxel-resistant human TOV-21G cell
[25] = Reversal of drug resistance in paclitaxel-resistant human OVCAR-3 cells assessed as fold decrease in paclitaxel IC50 in presence of paclitaxel; assay type: functional, paclitaxel-resistant human OVCAR-3 cell
[26] = target: T1, ATP-dependent translocase ABCB1; test: Inhibition of ABCB1 in multi-drug resistance human HL-60 cells assessed as increase in daunorubicin accumulation; assay type: cell-based
[27] = test system: SH-SY5Y; test: Antiproliferative activity against human SH-SY5Y cells assessed as inhibition of cell survival by MTT assay; assay type: functional; conditions: read-out: LC50 (the source's name)
[28] = test system: HEK293; test: Antiproliferative activity against human HEK293 cells assessed as inhibition of cell survival by MTT assay; assay type: functional; conditions: read-out: LC50 (the source's name)
[29] = test system: U-937; test: Antiproliferative activity against human U-937 cells assessed as inhibition of cell survival by MTT assay; assay type: functional; conditions: read-out: LC50 (the source's name)
[30] = Antiproliferative activity against human HaCaT cells assessed as inhibition of cell survival by MTT assay; assay type: toxicity, cell-based; conditions: read-out: LC50 (the source's name)
[31] = Antiproliferative activity against human BJ cells assessed as inhibition of cell survival by MTT assay; assay type: toxicity, cell-based; conditions: read-out: LC50 (the source's name)
[32] = test system: HL-60; test: Antiproliferative activity against human HL-60 cells assessed as inhibition of cell survival by MTT assay; assay type: functional; conditions: read-out: LC50 (the source's name)
[33] = test system: A549/TR; test: Antiproliferative activity against human A549/Taxol cells overexpressing ABCB1 assessed as cell growth inhibition by MTT assay; assay type: functional, cell-based
[34] = test system: A2780/Taxol; test: Antiproliferative activity against human A2780/Taxol cells overexpressing ABCB1 assessed as cell growth inhibition by MTT assay; assay type: functional, cell-based
[35] = test system: A549/TR; test: Potentiation of paclitaxel induced antiproliferative activity against human A549/Taxol cells overexpressing ABCB1 assessed as fold reduction in paclitaxel IC50 by MTT assay relative to control
[36] = test system: A2780/Taxol; test: Potentiation of paclitaxel induced antiproliferative activity against human A2780/Taxol cells overexpressing ABCB1 assessed as fold reduction in paclitaxel IC50 by MTT assay relative to control; assay type: functional
[37] = test system: 4T1; test: Antitumor activity against mouse 4T1 cells implanted in Balb/c mouse assessed as tumor growth inhibition at 4 mg/kg administered once for every two days measured after 15 days by immunohistochemical analysis relative to control; assay type: functional; conditions: 4T1, 360 h, time 15 day
[38] = test system: ADR5000 cell line; test: Antitumor activity against human CEM/ADR5000 cells assessed as fold increase in doxorubicin accumulation; assay type: functional

COc1cc(/C=C/C(=O)CC(=O)/C=C/c2ccc(O)cc2)ccc1O
IC50 [1]: 1.56 µM | IC50 [2]: 1.56 µM

O=C(Nc1ccc(F)cc1)c1sccc1Nc1cccc2c1OCCO2
EC50 [3]: 35 µM

O=C(Nc1ccc(F)cc1)c1sccc1Nc1cccc2c1OCO2
EC50 [3]: 35 µM

C=C1[C@H](OC(=O)C(C)C)C[C@@H](OC(=O)c2cccnc2)C(C)(C)/C=C/[C@@H](C)C(=O)[C@@]2(OC(C)=O)C[C@H](C)[C@H](OC(C)=O)[C@@H]2[C@H]1OC(C)=O
IC5 [4]: 1.8 µM | IC50 [5]: 4.8 µM

C#CCn1c(-c2ccc(OC)cc2)nc2cc(Br)cnc21
IC50 [6]: 0.2 µM

O=C(C(C(=O)C(F)(F)C(F)(F)F)=P(c1ccccc1)(c1ccccc1)c1ccccc1)c1ccccc1
IC50 [7]: 39.4 µg/mL (≈ 74.7 µM)

O=C(C(C(=O)C(F)(F)C(F)(F)C(F)(F)F)=P(c1ccccc1)(c1ccccc1)c1ccccc1)c1ccccc1
IC50 [7]: 42.4 µg/mL (≈ 73.5 µM)

O=C(C(C(=O)C(F)(F)F)=P(c1ccccc1)(c1ccccc1)c1ccccc1)c1ccccc1
IC50 [7]: 37 µg/mL (≈ 77.7 µM)

CCCN(CCC)S(=O)(=O)c1ccc(C(=O)CC[C@H](N)C(=O)O)cc1
fold change (FC) [8]: 3 | fold change (FC) [9]: 3 | fold change (FC) [10]: 3

COc1ccc(CCC2c3cc(OCc4ccccc4)c(OC)cc3CCN2C)cc1OCc1ccccc1 (racemic)
IC50 [11]: 15.1 µM | IC50 [12]: 11.5 µM

O=C(O)/C=C/c1ccc(O)c(O)c1 [CAFFEIC ACID]
fold change (FC) [13]: 15.11 | fold change (FC) [14]: 3.9 | IC50 [15]: 0.125 µM | IC50 [16]: 0.198 µM | fold change (FC) [17]: 4.96 | IC50 [18]: 0.597 µM

C/C=C/C[C@@H](C)[C@@H](O)[C@H]1C(=O)N[C@@H](CC)C(=O)N(C)CC(=O)N(C)[C@@H](CC(C)C)C(=O)N[C@@H](C(C)C)C(=O)N(C)[C@@H](CC(C)C)C(=O)N[C@@H](C)C(=O)N[C@H](C)C(=O)N(C)[C@@H](CC(C)C)C(=O)N(C)[C@@H](CC(C)C)C(=O)N(C)[C@@H](C(C)C)C(=O)N1C [CYCLOSPORINE]
IC50 [11]: 7.95 µM | IC50 [12]: 23.9 µM

COc1cccc2c1C(=O)c1c(O)c3c(c(O)c1C2=O)C[C@@](O)(C(=O)CO)C[C@@H]3O[C@H]1C[C@H](N)[C@H](O)[C@H](C)O1 [DOXORUBICIN]
IC50 [19]: < 40 µM | IC50 at 72 h [20]: < 40 µM | IC50 [21]: < 40 µM | IC50 [22]: 0.504 µM

COc1cc([C@@H]2c3cc4c(cc3[C@@H](O[C@@H]3O[C@@H]5CO[C@@H](C)O[C@H]5[C@H](O)[C@H]3O)[C@H]3COC(=O)[C@H]23)OCO4)cc(OC)c1O [ETOPOSIDE]
IC5 [4]: 6.2 µM | IC50 [5]: 62 µM

COc1ccc2cc1Oc1ccc(cc1)C[C@H]1c3cc(c(OC)cc3CCN1C)Oc1c(OC)c(OC)c(OC)c3c1[C@H](C2)N(C)CC3 [HERNANDEZINE]
IC50 [23]: 0.025 µM

CS(=O)(=O)CCNCc1ccc(-c2ccc3ncnc(Nc4ccc(OCc5cccc(F)c5)c(Cl)c4)c3c2)o1 [LAPATINIB]
fold change (FC) [24]: 20.7 | fold change (FC) [25]: 6.2

CO[C@@H]1[C@H](N(C)C(=O)c2ccccc2)C[C@H]2O[C@]1(C)n1c3ccccc3c3c4c(c5c6ccccc6n2c5c31)C(=O)NC4 [MIDOSTAURIN]
IC50 [26]: 0.068 µM

Cc1cn(-c2cc(NC(=O)c3ccc(C)c(Nc4nccc(-c5cccnc5)n4)c3)cc(C(F)(F)F)c2)cn1 [NILOTINIB]
CC50 [27]: 4.2 µM | CC50 [28]: 5.9 µM | CC50 [29]: 2.3 µM | CC50 [30]: 3.9 µM | CC50 [31]: 5.6 µM | CC50 [32]: 1.7 µM

COc1ccc(-c2cc(=O)c3c(OC)c(OC)c(OC)c(OC)c3o2)cc1OC [NOBILETIN]
IC50 [33]: 9 µM | IC50 [34]: 9 µM | fold change (FC) [35]: 15.92 | fold change (FC) [36]: 15.92

CC(=O)O[C@H]1C(=O)[C@@]2(C)[C@H]([C@H](OC(=O)c3ccccc3)[C@]3(O)C[C@H](OC(=O)[C@H](O)[C@@H](NC(=O)c4ccccc4)c4ccccc4)C(C)=C1C3(C)C)[C@]1(OC(C)=O)CO[C@@H]1C[C@@H]2O [PACLITAXEL]
IC50 [19]: < 40 µM | IC50 at 72 h [20]: < 40 µM | IC50 [21]: < 40 µM

C=CC(=O)N1CCC(Oc2cc3c(Nc4ccc(Cl)c(Cl)c4F)ncnc3cc2OC)CC1 [POZIOTINIB]
fold change (FC) [24]: 20.7 | fold change (FC) [25]: 6.2

CC(=O)O[C@@H]1C[C@H](O)[C@@]23CO[C@@H](O)[C@]1(C)[C@@H]2C[C@@H](O)[C@]1(C)[C@@H]3C(=O)[C@H](OC(C)=O)[C@@]2(C)[C@H](c3ccoc3)C[C@H]3O[C@]321 [TOOSENDANIN]
inhibition in vivo at 4 mg/kg [37]: 90%

COc1ccc(CCN(C)CCCC(C#N)(c2ccc(OC)c(OC)c2)C(C)C)cc1OC (stereo not drawn) [VERAPAMIL]
fold change (FC) [38]: 4.7

CC[C@]1(O)C[C@H]2CN(CCc3c([nH]c4ccccc34)[C@@](C(=O)OC)(c3cc4c(cc3OC)N(C=O)[C@H]3[C@@](O)(C(=O)OC)[C@H](OC(C)=O)[C@]5(CC)C=CCN6CC[C@]43[C@@H]65)C2)C1 [VINCRISTINE]
IC50 [19]: < 40 µM | IC50 at 72 h [20]: < 40 µM | IC50 [21]: < 40 µM
